From US3988466A, “Prevention of gastric lesions” (priority 1973, dated 1976)

Legend:
[1] = system: indomethacin-induced gastric lesions in pylorus-ligated rats; assay: Effect of L-glutamine on indomethacin-induced gastric lesions in pylorus-ligated rats (Experiment 2); type: in vivo, male Donryu strain rats; conditions: for Ulcer index / Inhibition: indomethacin 20 mg/kg i.p.; for Inhibition: vs control ulcer index
Procedure: In this Experiment, 8 groups of male Donryu strain rats are used. The animals are fasted for 24 hours but water is allowed ad libitum. Under ether anesthesia, the pylorus is ligated according to the standard method of Shay et al. Seven groups are treated with graded doses of L-glutamine suspended in 1% carboxymethylcellulose solution by oral administration immediately after the pylorus ligation. An eighth group (control) is treated with 5 ml/kg of 1% carboxymethylcellulose solution alone. Following a control period of 10 minutes, the animals are treated with 20 mg/kg of indomethacin suspended in a trace amount of Tween 80 (trade name of Atlas Chemical Industries Inc., U.S.A.) by intraperitoneal injection. Thereafter, the animals are treated in the same manner as described in Experiment 1 and the length of lesions is measured.

[2] = system: acetic acid-induced writhing response in mice; assay: Effect of L-glutamine on analgesic activity of aspirin in mice (Experiment C); type: in vivo, male dd strain mice; conditions: presence of L-glutamine
Procedure: In this Experiment, 3 groups of male dd strain mice weighing 19-21 g are used.
As a control, the third group is treated only with 1% carboxymethylcellulose solution. After a control period of one hour, the animals are treated with 0.2 ml of 0.7% acetic acid solution in physiological saline by intraperitoneal injection, according to the method of Koster et al. [Koster, R. et al: Fed. Proc., 18, 412 (1959)]. Starting 10 minutes after the administration of acetic acid, the number of writhing reaction occurred in 10 minutes is counted.

[3] = system: aspirin-induced gastric lesions in pylorus-ligated rats; assay: Effect of L-glutamine on aspirin-induced gastric lesions in pylorus-ligated rats (Experiment 1); type: in vivo, male Donryu strain rats; conditions: for Ulcer index / Inhibition: aspirin 100 mg/kg oral; for Ulcer index: 7 hours; for Inhibition: vs control ulcer index
Procedure: In this Experiment, 6 groups of male Donryu strain rats are used. The animals are fasted for 24 hours but water is allowed ad libitum. Under ether anesthesia, the pylorus is ligated according to the standard method of Shay et al. Five groups are treated with graded doses of L-glutamine suspended in 1% carboxymethylcellulose solution by oral administration immediately after the pylorus ligation. A sixth group (control) is treated with 5 ml/kg of 1% carboxymethylcellulose solution alone. […] After a 7-hour interval during which the animals are not allowed feed or water, the animals are killed by an overdose of ether. […] The stomach is removed and slightly inflated by injection of 1% formalin solution through the esophagel junction. […] The stomach is opened along the greater curvature and the length of lesions (dark blue areas against pale blue background) in the glandular portion is measured under a dissecting microscope (10x) provided with a square grid. […] The ulcer index expressed by mm indicates the mean value of the sum of the length of the lesions per animal of each group. The level of significance is calculated according to Student t-test.

[4] = system: gastric secretion in pylorus-ligated rats; assay: Effect of L-glutamine on gastric secretion in pylorus-ligated rats (Experiment 4); type: in vivo, male Donryu strain rats; conditions: for Gastric juice volume / Pepsin concentration / Titrable acidity: 7 hours; for Acid output: volume × titrable acidity / 7 hours
Procedure: In this Experiment, 7 groups of male Donryu strain rats are used. After 24 hours of fasting, the pylorus of the animal is ligated in the same manner as described in Experiment 1. Six groups are treated in the same manner as described in Experiment 1 except for the injection of the solution of pontamine sky blue 6BX in saline. A seventh group (normal) is treated twice with 5 ml/kg of 1% carboxymethylcellulose solution.
After 7 hours of pylorus ligation, the animals are killed and the stomach is removed. The gastric juice is collected and the volume is measured. The gastric juice is titrated to pH 7.4 with 0.1N NaOH using an electromatic pH meter. The concentration of pepsin in the gastric juice is also determined according to Anson's hemoglobin method [Anson, M. L., J. Gen. Physiol.

[5] = system: aspirin-induced gastric lesions in pylorus-ligated rats; assay: Effect of various amino acids on aspirin-induced gastric lesions in pylorus-ligated rats (Experiment 3); type: in vivo, male Donryu strain rats
[6] = Effect of L-glutamine on absorption of aspirin in rats (plasma salicylate level; Experiment A); type: in vivo, male Wistar strain rats; conditions: L-glutamine administered together with aspirin
Procedure: In this Experiment, 2 groups of male Wistar strain rats weighing about 280-320 g, each consisting of 12 animals are fixed in supine position. Under ether anesthesia, the carotid artery is cannulated for blood sampling. Upon recovery from the anesthesia, one group is treated with 1000 mg/kg of L-glutamine suspended in 1% carboxymethylcellulose solution and the other group (control) with 5 ml/kg of 1% carboxymethylcellulose solution alone, by oral administration. […] The same treatments are applied also to 2 groups of pylorus-ligated rats, each consisting of 5 animals.
The blood sample is centrifuged at 8,000 r.p.m. for 5 minutes and 20 μl of plasma is collected for the measurement of salicylate concentration. Salicylate concentration of plasma is determined according to the method of Lever & Powell [Lever, M. and Powell, J. C.: Biochem. Med., 7, 203 (1973)].

experimental ulcers = conditions: induced by stress, pylorus ligation, histamine, reserpine or cortisone; cited from earlier work
[7] = L-glutamine 62.5 mg/kg, aspirin 100 mg/kg
[8] = L-glutamine 125 mg/kg, aspirin 100 mg/kg
[9] = L-glutamine 250 mg/kg, aspirin 100 mg/kg
[10] = L-glutamine 500 mg/kg, aspirin 100 mg/kg
[11] = L-glutamine 1000 mg/kg in presence of aspirin
[12] = L-glutamine 1,000 mg/kg, aspirin 100 mg/kg

In the case of NC(=O)CC[C@H](N)C(=O)O [L-glutamine], the “effect on the prevention of indomethacin-induced gastric lesions” value ([1]; L-glutamine 15.6 mg/kg) is reported as “no effect”, the Ulcer index ([1]; L-glutamine 15.6 mg/kg oral) is reported as 12.1±3.5 mm and the Inhibition ([1]; L-glutamine 15.6 mg/kg oral) is reported as 3.2%. For the same compound, the “inhibition of gastric lesions (in words)” value ([1]; L-glutamine 31.3 mg/kg) was “fairly inhibits the gastric lesions but the inhibition is not significant”, the Ulcer index ([1]; L-glutamine 31.3 mg/kg oral) was 5.0±1.1 mm and the Inhibition ([1]; L-glutamine 31.3 mg/kg oral) was 60.0%. For the same compound, the “prevention of indomethacin-induced gastric lesions” value ([1]; L-glutamine 62.5 mg/kg - 1000 mg/kg) was “effective for the prevention of indomethacin-induced gastric lesions”, the Ulcer index ([1]; L-glutamine 62.5 mg/kg oral) was 2.6±0.8 mm and the Inhibition ([1]; L-glutamine 62.5 mg/kg oral) was 79.2%. For the same compound, the Ulcer index ([1]; L-glutamine 125 mg/kg oral) was 3.9±1.5 mm, the Inhibition ([1]; L-glutamine 125 mg/kg oral) was 68.8% and the Ulcer index ([1]; L-glutamine 250 mg/kg oral) was 2.4±0.4 mm. The Inhibition ([1]; L-glutamine 250 mg/kg oral) was 80.8%, the Ulcer index ([1]; L-glutamine 500 mg/kg oral) was 1.6±0.7 mm and the Inhibition ([1]; L-glutamine 500 mg/kg oral) was 87.2%. For the same compound, the Ulcer index ([1]; L-glutamine 1,000 mg/kg oral) was 0.5±0.3 mm, the Inhibition ([1]; L-glutamine 1,000 mg/kg oral) was 96.0% and the “influence on analgesic activity of aspirin” value [2] was “not substantially influenced”. The Ulcer index ([3]; L-glutamine 62.5 mg/kg oral) was 57.6±5.6 mm, the Inhibition ([3]; L-glutamine 62.5 mg/kg oral) was -5.0% and the “gastric lesions preventive effect” value [3, 7] was “no such effect is observed”. For the same compound, the Ulcer index ([3]; L-glutamine 125 mg/kg oral) was 27.9±4.7 mm, the Inhibition ([3]; L-glutamine 125 mg/kg oral) was 49.0% and the Ulcer index ([3]; L-glutamine 250 mg/kg oral) was 15.0±3.4 mm. It also gave an Inhibition ([3]; L-glutamine 250 mg/kg oral) of 72.6%, a Ulcer index ([3]; L-glutamine 500 mg/kg oral) of 18.0±3.1 mm and an Inhibition ([3]; L-glutamine 500 mg/kg oral) of 67.1%. For the same compound, the Ulcer index ([3]; L-glutamine 1,000 mg/kg oral) was 3.5±1.5 mm, the Inhibition ([3]; L-glutamine 1,000 mg/kg oral) was 93.6% and the “animals with stomachs quite clear and no mucosal defect” value ([3]; L-glutamine 1000 mg/kg, aspirin 100 mg/kg) was “three out of 12”. For the same compound, the “acid parameters (in words)” value ([4]; L-glutamine 62.5 mg/kg in presence of aspirin) was “almost the same as those of the control group”, the Gastric juice volume [4, 7] was 12.3 ± 0.5 mL and the Pepsin concentration [4, 7] was 26.3 ± 0.5 mg/mL. It also gave a Titrable acidity [4, 7] of 56.2±3.8 mEq/L, an Acid output [4, 7] of 97.8±6.5 μEq/hr and a Gastric juice volume [4, 8] of 12.1 ± 0.6 mL. For the same compound, the Pepsin concentration [4, 8] was 25.5 ± 0.8 mg/mL, the Titrable acidity [4, 8] was 88.9±4.8 mEq/L and the Acid output [4, 8] was 154.0±12.1 μEq/hr. The “appearance of gastric juices compared with control group” value ([4]; L-glutamine 250 mg/kg or more, aspirin 100 mg/kg) was “relatively clear”, the Gastric juice volume [4, 9] was 12.5 ± 0.5 mL and the Pepsin concentration [4, 9] was 27.1 ± 0.7 mg/mL. The Titrable acidity [4, 9] was 108.0±4.2 mEq/L, the Acid output [4, 9] was 194.1±13.5 μEq/hr and the “change in acid parameters (in words)” value ([4]; L-glutamine 500 mg/kg in presence of aspirin) was “No significant change”. For the same compound, the Gastric juice volume [4, 10] was 11.9 ± 0.4 mL, the Pepsin concentration [4, 10] was 25.4 ± 0.7 mg/mL and the Titrable acidity [4, 10] was 127.1±4.6 mEq/L. For the same compound, the Acid output [4, 10] was 215.5±10.3 μEq/hr, the “effect on acid output (in words)” value [4, 11] was “considerably increases the titrable acidity and acid output” and the “effect on titrable acidity (in words)” value [4, 11] was “considerably increases the titrable acidity”. For the same compound, the Gastric juice volume [4, 12] was 12.2 ± 0.3 mL, the Pepsin concentration [4, 12] was 23.6 ± 1.1 mg/mL and the Titrable acidity [4, 12] was 139.4±3.4 mEq/L. For the same compound, the Acid output [4, 12] was 243.9±8.1 μEq/hr, the “pepsin concentration (in words)” value ([4]; L-glutamine at a wide range of doses) was “maintained at a normal level” and the inhibition in vivo at 750 mg/kg ([5]; Rattus norvegicus, po, read-out: Inhibition) was 87.8%. The Ulcer index ([5]; amino acid 750 mg/kg oral, aspirin by gastric intubation) was 5.5±2.0 mm, the “effect on absorption of aspirin (in words)” value [6] was “does not inhibit the absorption of aspirin” and the “prevention or treatment of certain experimental ulcers” value (experimental ulcers) was “effective for the prevention or treatment of certain experimental ulcers”.
